# Laboratory results as given in ChEMBL document CHEMBL3431459, “Roche carnitine palmitoyltransferase modulator screening data (supplementary data associated with the publication CHEMBL2216752)”.
# pIC50: −log10 of the molar value.
# Experiments:
# [1] = SUPPLEMENTARY: Lyophilisation Solubility Assay (LYSA); type: physicochemical; conditions: read-out: Kinetic_solubility
# [2] = SUPPLEMENTARY: Lipophilicity (log D) Determination by high-throughput shake-flask; type: physicochemical; conditions: octanol/water
# [3] = target: T1, Carnitine O-palmitoyltransferase 1, liver isoform (Rattus norvegicus, UniProt P32198); test: (§1) SUPPLEMENTARY: Inhibition of Carnitine palmitoyltransferase 1, liver isoform
# T1 sequence (P32198 whole entry): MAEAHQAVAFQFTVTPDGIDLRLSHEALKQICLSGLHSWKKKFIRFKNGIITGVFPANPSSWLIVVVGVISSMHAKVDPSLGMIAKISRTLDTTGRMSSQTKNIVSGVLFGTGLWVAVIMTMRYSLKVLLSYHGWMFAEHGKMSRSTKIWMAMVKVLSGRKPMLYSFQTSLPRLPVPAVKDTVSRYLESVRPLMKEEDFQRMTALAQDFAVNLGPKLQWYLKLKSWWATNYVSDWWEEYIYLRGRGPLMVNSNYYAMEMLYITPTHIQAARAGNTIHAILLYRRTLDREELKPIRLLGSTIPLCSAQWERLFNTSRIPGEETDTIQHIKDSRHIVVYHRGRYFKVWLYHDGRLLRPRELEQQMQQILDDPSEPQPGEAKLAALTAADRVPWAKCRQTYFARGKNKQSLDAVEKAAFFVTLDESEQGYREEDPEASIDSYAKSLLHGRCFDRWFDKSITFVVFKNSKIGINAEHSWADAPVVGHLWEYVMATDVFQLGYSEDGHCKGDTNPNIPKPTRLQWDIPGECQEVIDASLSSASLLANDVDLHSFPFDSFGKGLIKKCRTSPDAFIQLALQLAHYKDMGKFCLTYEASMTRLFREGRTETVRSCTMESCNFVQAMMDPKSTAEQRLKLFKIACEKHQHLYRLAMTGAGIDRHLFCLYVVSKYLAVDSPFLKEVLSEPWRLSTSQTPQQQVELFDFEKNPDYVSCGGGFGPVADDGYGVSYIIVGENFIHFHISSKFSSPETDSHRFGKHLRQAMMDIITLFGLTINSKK
# [4] = target: T2, Carnitine O-palmitoyltransferase 1, liver isoform (Homo sapiens, UniProt P50416); test: as §1
# T2 sequence (P50416 whole entry): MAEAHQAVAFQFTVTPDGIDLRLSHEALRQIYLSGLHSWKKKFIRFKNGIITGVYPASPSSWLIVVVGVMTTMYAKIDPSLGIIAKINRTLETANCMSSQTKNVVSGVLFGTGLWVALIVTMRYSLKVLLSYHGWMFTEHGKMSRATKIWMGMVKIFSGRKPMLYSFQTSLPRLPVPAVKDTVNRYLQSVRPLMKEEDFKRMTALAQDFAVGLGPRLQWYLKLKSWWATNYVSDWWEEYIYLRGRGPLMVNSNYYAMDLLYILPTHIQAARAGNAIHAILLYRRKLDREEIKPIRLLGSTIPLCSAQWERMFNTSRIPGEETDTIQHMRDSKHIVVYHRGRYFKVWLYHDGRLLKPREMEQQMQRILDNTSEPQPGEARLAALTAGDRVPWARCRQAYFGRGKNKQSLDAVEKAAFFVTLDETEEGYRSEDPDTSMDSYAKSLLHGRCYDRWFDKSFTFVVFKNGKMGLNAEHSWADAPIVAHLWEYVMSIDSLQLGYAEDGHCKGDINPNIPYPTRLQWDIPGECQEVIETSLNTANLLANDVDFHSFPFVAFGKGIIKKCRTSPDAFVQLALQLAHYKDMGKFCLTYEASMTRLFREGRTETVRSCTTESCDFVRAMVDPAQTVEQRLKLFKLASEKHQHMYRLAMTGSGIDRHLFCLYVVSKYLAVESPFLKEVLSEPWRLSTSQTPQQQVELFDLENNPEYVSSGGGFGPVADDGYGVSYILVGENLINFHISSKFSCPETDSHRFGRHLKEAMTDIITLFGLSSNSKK
# [5] = target: T3, Carnitine O-palmitoyltransferase 1, muscle isoform (Homo sapiens, UniProt Q92523); test: SUPPLEMENTARY: Inhibition of Carnitine palmitoyltransferase 1, muscle isoform; design: species or system Muscle tissue
# T3 sequence (Q92523 whole entry): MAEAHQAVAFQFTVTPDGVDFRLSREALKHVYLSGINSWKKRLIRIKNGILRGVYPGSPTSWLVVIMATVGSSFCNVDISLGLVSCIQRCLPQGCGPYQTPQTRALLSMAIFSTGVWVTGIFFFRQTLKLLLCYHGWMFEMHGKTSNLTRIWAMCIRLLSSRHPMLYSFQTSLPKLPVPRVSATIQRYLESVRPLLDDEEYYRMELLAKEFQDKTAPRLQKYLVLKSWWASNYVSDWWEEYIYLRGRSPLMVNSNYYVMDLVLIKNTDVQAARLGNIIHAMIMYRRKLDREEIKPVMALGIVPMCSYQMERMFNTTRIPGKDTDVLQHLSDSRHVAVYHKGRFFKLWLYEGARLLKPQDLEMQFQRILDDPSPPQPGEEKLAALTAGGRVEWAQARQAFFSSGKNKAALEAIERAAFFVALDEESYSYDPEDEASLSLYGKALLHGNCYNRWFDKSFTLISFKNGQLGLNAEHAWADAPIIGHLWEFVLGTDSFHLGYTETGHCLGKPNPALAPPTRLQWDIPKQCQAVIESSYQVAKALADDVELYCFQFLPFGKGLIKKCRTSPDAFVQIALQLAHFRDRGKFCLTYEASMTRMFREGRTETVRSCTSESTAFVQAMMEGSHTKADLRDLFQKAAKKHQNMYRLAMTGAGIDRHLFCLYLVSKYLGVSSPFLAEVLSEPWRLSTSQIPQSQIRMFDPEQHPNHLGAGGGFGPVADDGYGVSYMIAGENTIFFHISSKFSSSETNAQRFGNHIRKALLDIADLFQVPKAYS
# [6] = target: T4, Carnitine O-palmitoyltransferase 2, mitochondrial (Rattus norvegicus, UniProt P18886); test: (§2) SUPPLEMENTARY: Inhibition of Carnitine palmitoyltransferase 2
# T4 sequence (P18886 whole entry): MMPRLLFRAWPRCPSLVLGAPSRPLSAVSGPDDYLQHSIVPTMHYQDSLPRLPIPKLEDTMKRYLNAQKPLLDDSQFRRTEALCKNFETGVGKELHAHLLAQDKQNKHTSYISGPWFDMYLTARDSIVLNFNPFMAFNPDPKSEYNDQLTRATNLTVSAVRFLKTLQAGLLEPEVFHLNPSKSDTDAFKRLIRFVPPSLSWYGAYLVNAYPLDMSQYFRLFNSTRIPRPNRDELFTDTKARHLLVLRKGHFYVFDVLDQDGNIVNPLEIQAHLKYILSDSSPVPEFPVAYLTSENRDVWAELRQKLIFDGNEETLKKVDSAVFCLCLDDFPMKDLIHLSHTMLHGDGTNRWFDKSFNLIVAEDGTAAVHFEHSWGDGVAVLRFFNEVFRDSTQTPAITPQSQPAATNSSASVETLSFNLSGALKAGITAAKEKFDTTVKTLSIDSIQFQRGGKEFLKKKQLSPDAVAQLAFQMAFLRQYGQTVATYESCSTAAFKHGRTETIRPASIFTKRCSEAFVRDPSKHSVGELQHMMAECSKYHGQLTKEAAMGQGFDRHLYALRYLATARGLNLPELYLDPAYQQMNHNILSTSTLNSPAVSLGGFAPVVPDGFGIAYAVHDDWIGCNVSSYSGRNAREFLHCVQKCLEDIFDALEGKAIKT
# [7] = target: T5, Carnitine O-palmitoyltransferase 2, mitochondrial (Homo sapiens, UniProt P23786); test: as §2
# T5 sequence (P23786 whole entry): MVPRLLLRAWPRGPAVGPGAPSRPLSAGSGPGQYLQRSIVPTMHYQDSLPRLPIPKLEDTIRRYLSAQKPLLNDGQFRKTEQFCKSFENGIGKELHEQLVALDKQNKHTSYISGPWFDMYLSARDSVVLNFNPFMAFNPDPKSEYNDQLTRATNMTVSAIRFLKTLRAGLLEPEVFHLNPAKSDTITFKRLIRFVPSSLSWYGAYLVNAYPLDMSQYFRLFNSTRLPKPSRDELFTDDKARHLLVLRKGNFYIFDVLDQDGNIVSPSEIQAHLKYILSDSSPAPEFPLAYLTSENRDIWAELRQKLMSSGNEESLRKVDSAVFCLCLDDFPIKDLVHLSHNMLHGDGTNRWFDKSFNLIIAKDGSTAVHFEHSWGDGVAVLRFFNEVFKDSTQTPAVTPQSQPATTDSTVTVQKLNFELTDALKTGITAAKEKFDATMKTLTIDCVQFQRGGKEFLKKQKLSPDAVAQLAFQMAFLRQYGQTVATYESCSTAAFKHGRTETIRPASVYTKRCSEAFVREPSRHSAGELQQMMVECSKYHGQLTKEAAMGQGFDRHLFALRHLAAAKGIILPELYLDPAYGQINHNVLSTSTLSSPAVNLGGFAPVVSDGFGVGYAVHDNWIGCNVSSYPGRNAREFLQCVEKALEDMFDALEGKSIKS
# [8] = SUPPLEMENTARY: PAMPA permeability assay; type: physicochemical; conditions: read-out: Permeability
Structure (SMILES),solubility kinetic [1] [µg/mL],logD [2],pIC50 [3],pIC50 [4],pIC50 [5],pIC50 [6],pIC50 [7],Papp [8] [×10⁻⁶ cm/s]
O=C(COc1ccccc1)N1CCCC[C@@H]1c1noc(-c2ccc(-n3cnnn3)cc2)n1,8,2.92,7.01,7.01,< 4.00,< 4.00,4.82,1.7
O=C(COc1ccccc1)N1CCCC[C@@H]1c1noc(-c2cccc3[nH]cnc23)n1,30,2.84,6.72,7.06,< 4.00,< 4.00,4.07,1.67
CC(=O)c1ccc(-c2nc([C@H]3CCCCN3C(=O)COc3ccccc3)no2)cc1,6,3.25,7.52,7.29,< 4.00,< 4.00,5.32,1.54
O=C(COc1ccccc1)N1CCCC[C@@H]1c1noc(-c2cnc3ccccc3n2)n1,12,3.22,6.63,6.75,< 4.00,< 4.00,< 4.00,4.18
CS(=O)(=O)c1cccc(-c2nc([C@H]3CCCCN3C(=O)COc3ccccc3)no2)c1,18,2.39,6.90,6.69,< 4.00,< 4.00,4.65,2.96
O=C(COc1ccccc1)N1CCCC[C@@H]1c1noc(-c2ccc(Cl)nc2)n1,32,2.98,6.60,6.81,< 4.00,< 4.00,4.42,5.17
O=C(COc1ccccc1)N1CCCC[C@@H]1c1noc(-c2ccc3ncsc3c2)n1,2,3.31,6.83,6.75,< 4.00,< 4.00,4.74,2.4
O=C(COc1ccccc1)N1CCCC[C@@H]1c1noc(-c2ccc(C(F)(F)F)nc2)n1,8,3.38,6.70,6.70,< 4.00,4.15,5.18,2.21
O=C(COc1ccccc1)N1CCCC[C@@H]1c1noc(-c2ccc3snnc3c2)n1,1,> 3,6.74,7.11,< 4.00,4.37,5.56,2.42
O=C(COc1ccccc1)N1CCCC[C@@H]1c1noc(-c2ccc3cccnc3n2)n1,31.5,2.35,6.81,6.89,< 4.00,< 4.00,4.67,5.43
